ChEMBL document CHEMBL5104155, “Novel etodolac derivatives as eukaryotic elongation factor 2 kinase (eEF2K) inhibitors for targeted cancer therapy” (RSC Med Chem, 2022)
Active and inactive are the calls of the source. The calls are words filed in the database; no cut-off is given here.

Legend:
Format in all cases: cell-based
[1] = biological target: T1, Eukaryotic elongation factor 2 kinase (Homo sapiens) (UniProt O00418); assay: Inhibition of eEF2K in human MDA-MB-231 cells assessed as decrease in phosphorylation of eEF2 at Thr56 residue at 5 uM incubated for 2 hrs by western blot analysis
T1 sequence (whole entry): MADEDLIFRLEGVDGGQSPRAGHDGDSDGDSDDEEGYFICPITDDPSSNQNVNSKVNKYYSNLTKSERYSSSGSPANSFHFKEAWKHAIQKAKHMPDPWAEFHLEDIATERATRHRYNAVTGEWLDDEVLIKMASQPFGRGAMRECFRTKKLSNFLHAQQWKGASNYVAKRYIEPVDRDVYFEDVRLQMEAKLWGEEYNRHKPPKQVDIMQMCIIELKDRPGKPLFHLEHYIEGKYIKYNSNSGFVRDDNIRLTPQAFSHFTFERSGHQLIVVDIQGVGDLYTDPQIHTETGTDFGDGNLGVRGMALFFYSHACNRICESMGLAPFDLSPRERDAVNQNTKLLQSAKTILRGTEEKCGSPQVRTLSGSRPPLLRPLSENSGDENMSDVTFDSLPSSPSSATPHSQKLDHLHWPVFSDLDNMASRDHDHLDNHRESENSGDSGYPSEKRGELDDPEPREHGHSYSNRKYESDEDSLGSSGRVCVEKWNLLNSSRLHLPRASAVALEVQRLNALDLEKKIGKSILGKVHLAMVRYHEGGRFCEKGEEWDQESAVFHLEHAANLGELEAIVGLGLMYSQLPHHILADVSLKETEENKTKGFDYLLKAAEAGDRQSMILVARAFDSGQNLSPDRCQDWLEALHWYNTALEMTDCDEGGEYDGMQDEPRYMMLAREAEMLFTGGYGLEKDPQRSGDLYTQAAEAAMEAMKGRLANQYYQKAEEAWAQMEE

[2] = biological target: T1, Eukaryotic elongation factor 2 kinase (Homo sapiens); assay: Inhibition of eEF2K in human MDA-MB-231 cells assessed as decrease in phosphorylation of eEF2 at Thr56 residue at 2.5 uM incubated for 2 hrs by western blot analysis
[3] = biological target: T1, Eukaryotic elongation factor 2 kinase (Homo sapiens); assay: Inhibition of eEF2K in human MDA-MB-231 cells assessed as decrease in phosphorylation of eEF2 at Thr56 residue at 20 uM incubated for 2 hrs by western blot analysis

Row | inhibition [1] | inhibition [2] | inhibition [3] | SMILES
1 | Active | Active | – | CCc1cccc2c3c([nH]c12)C(CC)(CC(=O)N1CCN(C)CC1)OCC3 (stereo not given)
2 | – | – | Active | CCc1cccc2c3c([nH]c12)C(CC)(CC(=O)N1CCCCC1)OCC3 (stereo not given)
3 | Active | Active | – | CCc1cccc2c3c([nH]c12)C(CC)(CC(=O)NCCN1CCCCC1)OCC3 (stereo not given)
